Test results from patent US6355799B1, “Substituted benzene compounds, process for their preparation, and herbicidal and defoliant compositions containing them” (ISK Americas Incorporated, priority 1997, dated 2002).

How the values were obtained:
Assay type in all cases: in vivo
[1] = system: barnyardgrass (Echinochloa crus-galli, ECHCG); assay: Pre-emerge test, greenhouse herbicide activity screening; settings: rating scale 0-100, 14 days after application
In short: (§1)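 Fourteen days after spraying, crop and weed injury was graded visually from 0, no effect, to 100, every plant dead. Test substances were dissolved in acetone and applied at 15–1000 g ai/ha with a flat-fan nozzle. Application was either pre-emergence, one day after sowing, or post-emergence at the 2–3 leaf stage.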

[2] = system: lambsquarters (Chenopodium album, CHEAL); assay: as above; settings: rating scale 0-100, 14 days after application
In short: as §1

[3] = system: common ragweed (Ambrosia artemisizfolia L., AMBEL); assay: as above; settings: rating scale 0-100, 14 days after application
In short: as §1

[4] = system: large crabgrass (Digitaria sanguinalis, DIGSA); assay: as above; settings: rating scale 0-100, 14 days after application
In short: as §1

[5] = system: green foxtail (Setaria viridis, SETVI); assay: as above; settings: rating scale 0-100, 14 days after application
In short: as §1

[6] = system: johnsongrass (Sorghum halepense, SORHA); assay: as above; settings: rating scale 0-100, 14 days after application
In short: as §1

[7] = system: sicklepod (Cassia obtusifolia, CASOB); assay: as above; settings: rating scale 0-100, 14 days after application
In short: as §1

[8] = system: velvetleaf (Abutilon theophrasti, ABUTH); assay: as above; settings: rating scale 0-100, 14 days after application
In short: as §1

[9] = system: ivyleaf morningglory (Ipomoea hederacea, IPOHE); assay: as above; settings: rating scale 0-100, 14 days after application
In short: as §1

[10] = system: upland rice (Oryza sp., var. Tebonnet, RICE); assay: Post-emerge test, crop safety; settings: rating scale 0-100 (0 no damage, 100 complete death), 14 days after application
In short: as §1

[11] = system: field corn (Zea mays L., var. Dekalb 535, CORN); assay: Post-emerge test, crop safety; settings: rating scale 0-100 (0 no damage, 100 complete death), 14 days after application
In short: as §1

[12] = system: redroot pigweed (Amaranthus retroflexus, AMARE); assay: Pre-emerge test, greenhouse herbicide activity screening; settings: rating scale 0-100, 14 days after application
In short: (§2)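 Visual ratings on a 0-100 scale (0 no damage, 100 all plants dead) were taken at 14 days after treatment. Rates of 15-1000 g ai/ha in acetone, 187 l/ha, were sprayed onto soil one day after planting (pre-emerge) or onto 2-3 leaf plants with 0.25% v/v surfactant (post-emerge).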

[13] = system: barnyardgrass (Echinochloa crus-galli, ECHCG); assay: Post-emerge test, greenhouse herbicide activity screening; settings: rating scale 0-100 (0 no damage, 100 complete death), 14 days after application
In short: (§3)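 Sandy loam pots; pre-emerge: sown 1 d pre-spray, surface-watered after, then bottom-watered. Post-emerge: sown 8–21 d before, 2–3 leaf stage, + 0.25% v/v NIS, bottom-watered. Acetone, 187 l/ha track spray, 15–1000 g ai/ha. 0–100 injury score, day 14.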

[14] = system: lambsquarters (Chenopodium album, CHEAL); assay: as above; settings: rating scale 0-100 (0 no damage, 100 complete death), 14 days after application
In short: as §3

[15] = system: common ragweed (Ambrosia artemisizfolia L., AMBEL); assay: as above; settings: rating scale 0-100 (0 no damage, 100 complete death), 14 days after application
In short: as §3

[16] = system: large crabgrass (Digitaria sanguinalis, DIGSA); assay: as above; settings: rating scale 0-100 (0 no damage, 100 complete death), 14 days after application
In short: as §3

[17] = system: green foxtail (Setaria viridis, SETVI); assay: as above; settings: rating scale 0-100 (0 no damage, 100 complete death), 14 days after application
In short: as §3

[18] = system: redroot pigweed (Amaranthus retroflexus, AMARE); assay: as above; settings: rating scale 0-100 (0 no damage, 100 complete death), 14 days after application
In short: as §3

[19] = system: sicklepod (Cassia obtusifolia, CASOB); assay: as above; settings: rating scale 0-100 (0 no damage, 100 complete death), 14 days after application
In short: as §3

[20] = system: velvetleaf (Abutilon theophrasti, ABUTH); assay: as above; settings: rating scale 0-100 (0 no damage, 100 complete death), 14 days after application
In short: as §3

[21] = system: ivyleaf morningglory (Ipomoea hederacea, IPOHE); assay: as above; settings: rating scale 0-100 (0 no damage, 100 complete death), 14 days after application
In short: as §3

[22] = system: upland rice (Oryza sp., var. Tebonnet, RICE); assay: Pre-emerge test, crop safety; settings: rating scale 0-100, 14 days after application
In short: as §2

[23] = system: field corn (Zea mays L., var. Dekalb 535, CORN); assay: Pre-emerge test, crop safety; settings: rating scale 0-100, 14 days after application
In short: as §2

CCCCCCOC(=O)C(Cl)Cc1c(OC)c(Cl)cc(F)c1-n1c(=O)cc(C(F)(F)F)n(C)c1=O (single isomer, unassigned) [14-12]
20: Pre-emerge herbicidal activity, phytotoxicity rating ABUTH ([8]; 250 g ai/ha) | Post-emerge Herbicidal Activity, phytotoxicity rating CASOB ([19]; Rate 63 g ai/ha)
90: Post-emerge Herbicidal Activity, phytotoxicity rating CHEAL ([14]; Rate 63 g ai/ha) | Post-emerge Herbicidal Activity, phytotoxicity rating AMARE ([18]; Rate 250 g ai/ha)
30: Post-emerge phytotoxicity rating CORN (crop damage) ([11]; Rate 63 g ai/ha) | Post-emerge Herbicidal Activity, phytotoxicity rating SETVI ([17]; Rate 63 g ai/ha)
80: Post-emerge Herbicidal Activity, phytotoxicity rating AMBEL ([15]; Rate 63 g ai/ha) | Post-emerge Herbicidal Activity, phytotoxicity rating AMBEL ([15]; Rate 250 g ai/ha) | Post-emerge Herbicidal Activity, phytotoxicity rating CASOB ([19]; Rate 250 g ai/ha)
99: Post-emerge Herbicidal Activity, phytotoxicity rating ECHCG ([13]; Rate 250 g ai/ha) | Post-emerge Herbicidal Activity, phytotoxicity rating CHEAL ([14]; Rate 250 g ai/ha)
0: Pre-emerge herbicidal activity, phytotoxicity rating ECHCG ([1]; 63 g ai/ha) | Pre-emerge herbicidal activity, phytotoxicity rating ECHCG ([1]; 250 g ai/ha) | Pre-emerge herbicidal activity, phytotoxicity rating AMBEL ([3]; 63 g ai/ha) | Pre-emerge herbicidal activity, phytotoxicity rating AMBEL ([3]; 250 g ai/ha) | Pre-emerge herbicidal activity, phytotoxicity rating DIGSA ([4]; 63 g ai/ha) | Pre-emerge herbicidal activity, phytotoxicity rating SETVI ([5]; 63 g ai/ha) | Pre-emerge herbicidal activity, phytotoxicity rating SETVI ([5]; 250 g ai/ha) | Pre-emerge herbicidal activity, phytotoxicity rating SORHA ([6]; 63 g ai/ha) | Pre-emerge herbicidal activity, phytotoxicity rating SORHA ([6]; 250 g ai/ha) | Pre-emerge herbicidal activity, phytotoxicity rating CASOB ([7]; 63 g ai/ha) | Pre-emerge herbicidal activity, phytotoxicity rating CASOB ([7]; 250 g ai/ha) | Pre-emerge herbicidal activity, phytotoxicity rating ABUTH ([8]; 63 g ai/ha) | Pre-emerge herbicidal activity, phytotoxicity rating IPOHE ([9]; 63 g ai/ha) | Pre-emerge herbicidal activity, phytotoxicity rating IPOHE ([9]; 250 g ai/ha) | Post-emerge phytotoxicity rating RICE (crop damage) ([10]; Rate 63 g ai/ha) | Pre-emerge phytotoxicity rating, crop damage RICE ([22]; 63 g ai/ha) | Pre-emerge phytotoxicity rating, crop damage RICE ([22]; 250 g ai/ha) | Pre-emerge phytotoxicity rating, crop damage CORN ([23]; 63 g ai/ha) | Pre-emerge phytotoxicity rating, crop damage CORN ([23]; 250 g ai/ha)
50: Pre-emerge herbicidal activity, phytotoxicity rating CHEAL ([2]; 63 g ai/ha) | Post-emerge Herbicidal Activity, phytotoxicity rating DIGSA ([16]; Rate 63 g ai/ha)
98: Post-emerge Herbicidal Activity, phytotoxicity rating ECHCG ([13]; Rate 63 g ai/ha)
100: Pre-emerge herbicidal activity, phytotoxicity rating DIGSA ([4]; 250 g ai/ha) | Pre-emerge herbicidal activity, phytotoxicity rating AMARE ([12]; 250 g ai/ha)
85: Post-emerge phytotoxicity rating CORN (crop damage) ([11]; Rate 250 g ai/ha) | Post-emerge Herbicidal Activity, phytotoxicity rating AMARE ([18]; Rate 63 g ai/ha) | Post-emerge Herbicidal Activity, phytotoxicity rating ABUTH ([20]; Rate 250 g ai/ha)
60: Pre-emerge herbicidal activity, phytotoxicity rating CHEAL ([2]; 250 g ai/ha) | Pre-emerge herbicidal activity, phytotoxicity rating AMARE ([12]; 63 g ai/ha) | Post-emerge Herbicidal Activity, phytotoxicity rating DIGSA ([16]; Rate 250 g ai/ha)
10: Post-emerge phytotoxicity rating RICE (crop damage) ([10]; Rate 250 g ai/ha) | Post-emerge Herbicidal Activity, phytotoxicity rating ABUTH ([20]; Rate 63 g ai/ha)
70: Post-emerge Herbicidal Activity, phytotoxicity rating IPOHE ([21]; Rate 250 g ai/ha)
40: Post-emerge Herbicidal Activity, phytotoxicity rating SETVI ([17]; Rate 250 g ai/ha) | Post-emerge Herbicidal Activity, phytotoxicity rating IPOHE ([21]; Rate 63 g ai/ha)
